Values of other authors, collected in patent US20030082215A1 (priority 1999, published 2003).
Where two headings read alike, the source gives them in different places.

For CC(C)OC(=O)C(C)(C)Oc1ccc(C(=O)c2ccc(Cl)cc2)cc1 [fenofibrate], the bioavailability (conventional gelatin capsule form, after meals) is given as 89%, the bioavailability (conventional gelatin capsule form, on an empty stomach) is given as 26% and the bioavailability (gelatin capsule containing a 300 mg dose, healthy volunteers) is given as about 30%.
